Experimental data reported in patent publication EP1996603B1, “LIPID A ANTAGONISTS WITH ANTI-SEPTIC SHOCK, ANTI-INFLAMMATORY, ANTI-ISCHEMIA AND ANALGESIC ACTIVITY” (Università Degli Studi Di Milano - Bicocca, priority 2006, dated 2007).
“Also recorded” adds a separate entry of the source.

Assays:
TLR9 = target: T1, TLR9 (Homo sapiens, UniProt Q9NR96); experiment: NF-kB activation in HEK-293 cells transfected with TLR9, stimulated with CpG; type: cell-based; conditions: TLR9-transfected HEK 293; CpG (0.5 µM); maximal dose of 50 µM; measured 2 h later
T1 construct: host or cells: HEK-293 (HEK-293-hTLR9A)
T1 sequence (Q9NR96 26-1032): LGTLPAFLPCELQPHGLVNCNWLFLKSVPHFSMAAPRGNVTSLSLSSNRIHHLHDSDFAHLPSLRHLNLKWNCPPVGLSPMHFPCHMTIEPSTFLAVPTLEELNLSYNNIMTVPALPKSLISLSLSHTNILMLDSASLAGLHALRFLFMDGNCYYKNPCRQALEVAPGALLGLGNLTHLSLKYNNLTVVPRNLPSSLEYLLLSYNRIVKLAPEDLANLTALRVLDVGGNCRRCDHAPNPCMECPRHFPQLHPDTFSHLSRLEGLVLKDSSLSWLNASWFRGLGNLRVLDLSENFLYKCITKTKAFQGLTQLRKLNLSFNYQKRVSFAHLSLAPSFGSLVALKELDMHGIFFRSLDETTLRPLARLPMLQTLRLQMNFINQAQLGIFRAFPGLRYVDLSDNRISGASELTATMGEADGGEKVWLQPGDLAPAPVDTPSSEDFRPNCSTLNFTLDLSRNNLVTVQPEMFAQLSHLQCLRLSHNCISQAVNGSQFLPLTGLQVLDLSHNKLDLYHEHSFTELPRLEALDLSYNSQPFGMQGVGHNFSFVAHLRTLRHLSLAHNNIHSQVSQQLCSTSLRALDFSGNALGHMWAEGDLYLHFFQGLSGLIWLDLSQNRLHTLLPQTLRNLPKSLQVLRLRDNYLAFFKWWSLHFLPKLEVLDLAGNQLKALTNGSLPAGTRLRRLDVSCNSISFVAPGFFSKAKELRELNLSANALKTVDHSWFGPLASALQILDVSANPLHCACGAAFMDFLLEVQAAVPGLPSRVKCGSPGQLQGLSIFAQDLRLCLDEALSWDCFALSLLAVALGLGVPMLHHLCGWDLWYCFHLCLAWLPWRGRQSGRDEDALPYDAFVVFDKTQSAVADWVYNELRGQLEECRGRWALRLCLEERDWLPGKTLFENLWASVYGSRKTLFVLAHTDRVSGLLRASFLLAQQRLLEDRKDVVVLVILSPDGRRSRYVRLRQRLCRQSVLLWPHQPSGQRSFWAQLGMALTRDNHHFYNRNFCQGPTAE
Method: (§1) • Figure 1. Antagonistic activity of compounds Ia, Ic and Id on lipid A-stimulated cytokine production in BMDC, BMØ and D1 cells. TNFα production was measured in the supernatants 24 h later. From the right: lipid A (0.5µM), cells treated with lipid A alone; DMSO: cells incubated in the presence of complete medium plus DMSO; inhibitor 50 µM, cells treated only with monosaccharides Ia, Ic and Id; other columns, lipid A + compounds […] at increasing doses. The data represent means and standard deviations of triplicate wells. This is a representative of three independent experiments. *, p < 0.05; **, p < 0.01; ***, p< 0.001. • Figure 2. TLR-4 selectivity of monosaccharide Id. […] IL-1β was measured in the supernatants by ELISA. […] Lower panels, TNFα production measured by ELISA 24 h after stimulation with CpG (selective for TLR-9) or PAM3Cys-SK4 (selective for TLR-2) in the presence of compound Id. […] The cells were then analyzed by FACS for the presence of annexin V and propidium iodide (PI) double positive cells. […] NF-kB activation was evaluated in the nuclear extract 2 h later and expressed as optical density (OD) at 450 nm. […] Effect of different doses of compound Id on carrageenan induced edema in mice measured 4h after the exposure and expressed as difference between the paw volume of treated paw versus the contralateral paw. […]

DC and MΦ = experiment: Cytotoxicity: PI test and annexin V test by FACS; type: cell-based; conditions: 10 to 100 µM, 48 h incubation, 24 h in Figure 3 legend
Method: as §1

SMILES: CCCCCCCCCCCCCCO[C@H]1[C@@H](OC)O[C@H](C[N+](C)(C)C2CCCC2)[C@@H](O)[C@@H]1OCCCCCCCCCCCCCC [Compound Id, methyl 6-deoxy-6-N,N',N"-dimethylcyclopentylammonium-2,3-di-O-tetradecyl-α-D-glucopyranoside]
- NF-kB activation (TLR9): inactive
- percent of dead cells (DC and MΦ): does not induce death of MΦ and DC; also recorded: Neither DC nor MΦ showed an appreciable percent of dead cells
